Reference: US20050222106A1, “Drospirenone-containing preparations for transdermal use” (priority 2004, published 2005)
Entries after “also recorded” stand apart in the source; their conditions may differ.

What was measured:
[1] = Permeation through human skin from the preparation of Example 1; type: in vitro ADME
Method: (§1) 200 mg of the preparation made according to Example 1 were applied to bare mouse skin, which were fixed in modified Franz permeation cells as a permeation membrane. The results for the average permeation values for testosterone and drospirenone in μg/cm^2 versus time after application are shown in FIG. 1. The average values are the average of seven experimental runs. The mouse skin used was hairless mouse skin, HsdCpb NMRI-nu/nu, Harlan Bioservice, Walsrode.
(§2) Acceptable Medium for the Franz Cells:
(§3) At 3, 6, 9, 12, 15 and 18 hours samples of 100 μl were removed by an automatic sampling system from the acceptor medium of the Franz cells and injected into an HPLC automatic analyzer.
The preparation from example 1 was tested on human skin (female belly skin from cosmetic reduction, dermatomized at a layer thickness of about 450 μm).
The skin permeation values or mass transport amount for drospirenone and testosterone as a function of time after application of the preparation to the skin are shown in FIG. 2. The open squares indicate the measured permeation values for testosterone in […]. The open circles indicate the permeation values for drospirenone. The vertical lines on the circles and squares are error bars indicating the experimental error.

[2] = Permeation of bare mouse skin in modified Franz permeation cells; type: in vitro ADME; details: aqueous ethanolic vehicle (preparation of Example 1, 200 mg), FIG. 1, average of seven runs
Method: as §1, §2, §3
The filled-in circles indicate the measured permeation values for testosterone in FIG. 1. The filled-in squares indicate the permeation values for drospirenone. The vertical lines on the circles and squares are error bars indicating the experimental error.

SMILES	Permeation values relative to those of testosterone ([1]; female, human)	Mean cumulative Transport ([1]; female, human, 0 h) [μg/cm^2]	Mean cumulative Transport ([1]; female, human, 3 h) [μg/cm^2]	Mean cumulative Transport ([1]; female, human, 7 h) [μg/cm^2]	Mean cumulative Transport ([1]; female, human, 10 h) [μg/cm^2]	Mean cumulative Transport ([1]; female, human, 24 h) [μg/cm^2]	Mean cumulative Transport ([1]; female, human, 30 h) [μg/cm^2]	Mean cumulative Transport ([1]; female, human, 48 h) [μg/cm^2]	Permeation of mouse skin in vitro compared with testosterone [2]	Mean cumulative Transport ([1]; human skin, preparation of Example 1, time 0 h) [μg/cm^2]	Mean cumulative Transport ([1]; human skin, preparation of Example 1, time 3 h) [μg/cm^2]	Mean cumulative Transport ([1]; human skin, preparation of Example 1, time 7 h) [μg/cm^2]	Mean cumulative Transport ([1]; human skin, preparation of Example 1, time 10 h) [μg/cm^2]	Mean cumulative Transport ([1]; human skin, preparation of Example 1, time 24 h) [μg/cm^2]	Mean cumulative Transport ([1]; human skin, preparation of Example 1, time 30 h) [μg/cm^2]	Mean cumulative Transport ([1]; human skin, preparation of Example 1, time 48 h) [μg/cm^2]
C[C@]12CCC(=O)C=C1[C@@H]1C[C@@H]1[C@H]1[C@@H]3[C@@H]4C[C@@H]4[C@@]4(CCC(=O)O4)[C@@]3(C)CC[C@@H]12 [Drospirenone, drospirenone]	about 40%	0.00	0.87	2.04	2.86	8.67	12.13	19.23	approximately the same good extent as testosterone; also recorded: permeation values for testosterone are larger than those for drospirenone							
C[C@]12CC[C@H]3[C@@H](CCC4=CC(=O)CC[C@@]43C)[C@@H]1CC[C@@H]2O [Testosterone]										0.00	3.62	7.72	10.70	26.57	33.31	44.35
